ChEMBL document CHEMBL1201862, “PubChem BioAssay data set” (2004)
Calls of active or inactive are those of the source.

Experiments:
[1] = NIH-3T3 fibroblast cytotoxicity, dose response, cytotoxicity control, cell-based, fluorescence, Alamar Blue, secondary assay (AID 2327); format: functional;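 note: NIH-3T3 mouse fibroblasts cultured with fluconazole at 8 µg/mL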
[2] = system: Streptococcus sp. 'group A'; assay: growth inhibition of control SK(-) GAS strain, dose response, counter-screen for streptokinase expression inhibitor project, luminescence, kanamycin, BacTiterGlo, confirmation (AID 1900); format: functional, organism-based
Streptokinase A = molecular target: T1, Streptokinase A (Streptococcus pyogenes serotype M1, UniProt P10520); assay: S. pyogenes streptokinase expression inhibitors, potency, dose response, plasminogen activation absorbance, OD405 (AID 1914); format: functional, Streptococcus pyogenes M1 GAS;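 note: secreted streptokinase activity via plasminogen activation per viability signal from cell pellet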
T1 sequence (P10520 whole entry): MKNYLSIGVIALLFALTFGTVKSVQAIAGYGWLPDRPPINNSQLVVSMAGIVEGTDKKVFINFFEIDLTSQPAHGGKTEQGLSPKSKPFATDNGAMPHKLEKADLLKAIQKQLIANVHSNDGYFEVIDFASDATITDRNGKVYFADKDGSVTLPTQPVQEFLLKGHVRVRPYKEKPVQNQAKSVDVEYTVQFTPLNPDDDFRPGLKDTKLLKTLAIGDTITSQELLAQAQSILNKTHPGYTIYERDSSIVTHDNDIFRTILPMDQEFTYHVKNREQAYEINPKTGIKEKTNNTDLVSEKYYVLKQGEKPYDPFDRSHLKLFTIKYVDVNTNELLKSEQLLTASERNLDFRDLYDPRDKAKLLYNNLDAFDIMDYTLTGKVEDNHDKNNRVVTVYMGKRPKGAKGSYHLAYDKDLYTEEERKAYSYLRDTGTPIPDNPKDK

[3] = C. albicans growth with fluconazole, confirmation, fluorescence, retest (AID 2467); format: functional, cell-based
[4] = inhibitors of intracellular T. cruzi replication, confirmation, NIH3T3 host cells, beta-gal luminescence (AID 2044); format: functional, cell-based;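 note: intracellular parasites grown in NIH/3T3 mouse fibroblasts as host cells; luminescent beta-galactosidase reporter signal from transgenic T. cruzi replicating inside host cells; inhibitors lower the luminescence signal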
[5] = molecular target: T2, Serine/threonine-protein phosphatase (Candida dubliniensis (strain CD36 / CBS 7987 / NCPF 3949 / NRRLY-17841) (Yeast), UniProt B9W6M3); assay: calcineurin pathway inhibitors in yeast reporter, dose response, S. cerevisiae, CDRE-lacZ, luminescence, secondary (AID 2388); format: functional, cell-based;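 note: yeast reporter cells carrying a calcineurin-responsive lacZ construct stimulated with calcium chloride; luminescent beta-galactosidase reporter signal in whole cells rather than isolated phosphatase activity; potency for inhibition where a drop in reporter signal means calcineurin blockade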
T2 sequence (B9W6M3 whole entry): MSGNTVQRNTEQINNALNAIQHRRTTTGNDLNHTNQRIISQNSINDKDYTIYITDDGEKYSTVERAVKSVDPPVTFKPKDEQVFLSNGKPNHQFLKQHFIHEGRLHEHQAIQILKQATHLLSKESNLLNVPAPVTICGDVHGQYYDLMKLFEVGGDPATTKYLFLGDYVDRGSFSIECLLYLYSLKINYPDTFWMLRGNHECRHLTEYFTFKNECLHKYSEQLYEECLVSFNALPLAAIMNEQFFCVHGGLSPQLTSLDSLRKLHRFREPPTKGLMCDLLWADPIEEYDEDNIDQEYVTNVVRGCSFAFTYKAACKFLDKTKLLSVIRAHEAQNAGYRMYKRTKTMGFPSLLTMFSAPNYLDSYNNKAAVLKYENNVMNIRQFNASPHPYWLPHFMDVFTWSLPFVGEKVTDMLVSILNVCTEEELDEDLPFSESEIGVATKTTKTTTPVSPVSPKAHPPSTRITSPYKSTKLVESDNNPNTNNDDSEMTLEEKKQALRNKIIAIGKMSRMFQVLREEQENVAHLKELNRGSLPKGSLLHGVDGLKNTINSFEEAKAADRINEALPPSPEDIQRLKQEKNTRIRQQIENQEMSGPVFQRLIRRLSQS

[6] = cytotoxicity toward NIH3T3 fibroblasts, dose response, counter-screen, cell-based, ATP luminescence, mouse fibroblasts (AID 2010); format: functional;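 note: cells exposed to compound for about 90 hours before reading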
Streptococcus = assay: Group A Streptococcus viability loss, dose response, counter-screen for streptokinase expression inhibitor project, luminescence, BacTiterGlo (AID 1915); format: functional, organism-based;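 note: potency for reduction of bacterial viability or growth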
INS1 = assay: beta cell apoptosis inhibitors, cytokine rescue, dose response, luminescence, retest (AID 449756); format: functional, cell-based; details: Rattus norvegicus;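 note: cell death triggered by IL-1 beta plus TNF-alpha plus IFN-gamma mixture; protective hits raise ATP signal compared with cytokine alone wells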
[7] = molecular target: ATP-dependent molecular chaperone HSP82 (Candida albicans (strain WO-1) (Yeast), UniProt C4YTQ8); assay: loss of DOC-induced GRE-beta-galactosidase reporter signal, dose response, Hsp90 inhibitor project, S. cerevisiae, luminescence (AID 2400); format: functional, cell-based;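 note: beta-galactosidase luminescence from glucocorticoid response element reporter as proxy for Hsp90 function; inhibitor potency where signal loss means Hsp90 inhibition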
[8] = molecular target: T3, Corticotropin-releasing factor receptor 2/Corticotropin-releasing factor-binding protein (Homo sapiens, UniProt P24387+Q13324); assay: Dose Response confirmation of uHTS hits for small molecule antagonists of the CRF-binding protein and CRF-R2 receptor complex.; format: functional; details: read-out: IC50_Mean
T3 sequence (Q13324 whole entry): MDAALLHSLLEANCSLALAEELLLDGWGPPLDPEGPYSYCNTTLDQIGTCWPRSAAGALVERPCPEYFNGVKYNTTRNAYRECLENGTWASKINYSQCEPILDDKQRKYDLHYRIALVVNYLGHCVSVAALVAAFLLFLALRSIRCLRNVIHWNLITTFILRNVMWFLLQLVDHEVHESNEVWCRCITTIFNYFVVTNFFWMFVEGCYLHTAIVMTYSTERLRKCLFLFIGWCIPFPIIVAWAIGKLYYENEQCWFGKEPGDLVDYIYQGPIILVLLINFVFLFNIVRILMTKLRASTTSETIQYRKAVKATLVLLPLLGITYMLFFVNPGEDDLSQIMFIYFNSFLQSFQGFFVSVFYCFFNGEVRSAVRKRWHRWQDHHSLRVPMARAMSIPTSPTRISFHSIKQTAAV
T3 sequence (P24387 whole entry): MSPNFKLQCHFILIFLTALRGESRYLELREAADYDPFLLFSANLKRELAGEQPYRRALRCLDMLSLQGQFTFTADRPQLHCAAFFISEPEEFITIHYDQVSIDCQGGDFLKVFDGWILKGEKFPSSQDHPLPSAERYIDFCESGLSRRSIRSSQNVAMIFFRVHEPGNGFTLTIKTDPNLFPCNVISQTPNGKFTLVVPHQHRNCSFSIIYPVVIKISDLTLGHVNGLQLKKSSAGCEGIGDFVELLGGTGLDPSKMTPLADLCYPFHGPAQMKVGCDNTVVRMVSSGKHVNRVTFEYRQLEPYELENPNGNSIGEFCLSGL

[9] = molecular target: T3, Corticotropin-releasing factor receptor 2/Corticotropin-releasing factor-binding protein; assay: activators of CRF receptor 2 with binding protein – uHTS hits, confirmation (AID 602473); format: functional; details: read-out: EC50_Mean
[10] = CRF-BP/CRF-R2 complex antagonists, dose response, cell-based, uHTS hits, 384-well (AID 651639); format: functional, Homo sapiens; details: read-out: IC50_Mean
[11] = inhibitors of HIV Env-driven cell fusion, dose response, cherry-pick (AID 652057); format: functional, cell-based
[12] = ZM109 Env clade C HIV-1 fusion inhibitors, dose response, HeLa effector, CEM target cells, luciferase, cherry-pick (AID 652058); format: functional, cell-based
[13] = off-target signal loss in HeLa-CEM21 co-culture – HeLa F-luc CTL cells, cherry-picked, counter-screen for HIV-1 Env fusion inhibitor project, dose response (AID 652040); format: functional, cell-based;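 note: potency for signal decrease marking cytotoxic or nonspecific inhibition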
[14] = inhibitors of clade B AD8 Env fusion, dose response, cell-based, cherry-pick (AID 652062); format: functional;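 note: luciferase signal from cell-cell fusion driven by HIV-1 clade B AD8 Env; potency is for inhibitors of fusion seen as a drop in luminescence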
Leucine aminopeptidase = molecular target: T4, Leucine aminopeptidase (Plasmodium falciparum 3D7, UniProt Q8IL11); assay: P. falciparum M17LAP inhibitors, primary screen, biochemical, fluorogenic H-Leu-NHMec substrate, 1536-well (AID 1619); format: functional
T4 sequence (Q8IL11 whole entry): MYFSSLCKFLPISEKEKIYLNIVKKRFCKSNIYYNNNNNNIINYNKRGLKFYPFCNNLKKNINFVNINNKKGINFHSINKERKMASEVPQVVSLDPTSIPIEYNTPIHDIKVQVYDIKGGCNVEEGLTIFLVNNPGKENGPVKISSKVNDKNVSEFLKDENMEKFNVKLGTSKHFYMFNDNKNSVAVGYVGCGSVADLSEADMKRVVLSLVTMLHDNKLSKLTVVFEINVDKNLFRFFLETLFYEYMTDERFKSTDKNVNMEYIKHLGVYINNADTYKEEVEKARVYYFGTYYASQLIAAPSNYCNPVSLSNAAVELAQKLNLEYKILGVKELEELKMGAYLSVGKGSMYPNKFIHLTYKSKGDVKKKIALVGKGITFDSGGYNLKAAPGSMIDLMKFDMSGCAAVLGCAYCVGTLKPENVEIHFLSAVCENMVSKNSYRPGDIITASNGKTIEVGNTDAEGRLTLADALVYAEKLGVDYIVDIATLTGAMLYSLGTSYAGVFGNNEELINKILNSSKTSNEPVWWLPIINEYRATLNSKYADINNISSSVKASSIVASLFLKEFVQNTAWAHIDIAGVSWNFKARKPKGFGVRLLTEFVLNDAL

Cytochrome P450 1A2 = molecular target: T5, Cytochrome P450 1A2 (Homo sapiens, UniProt P05177);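 note: PubChem cytochrome P450 panel assay, CYP1A2 panel member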
T5 sequence (P05177 whole entry): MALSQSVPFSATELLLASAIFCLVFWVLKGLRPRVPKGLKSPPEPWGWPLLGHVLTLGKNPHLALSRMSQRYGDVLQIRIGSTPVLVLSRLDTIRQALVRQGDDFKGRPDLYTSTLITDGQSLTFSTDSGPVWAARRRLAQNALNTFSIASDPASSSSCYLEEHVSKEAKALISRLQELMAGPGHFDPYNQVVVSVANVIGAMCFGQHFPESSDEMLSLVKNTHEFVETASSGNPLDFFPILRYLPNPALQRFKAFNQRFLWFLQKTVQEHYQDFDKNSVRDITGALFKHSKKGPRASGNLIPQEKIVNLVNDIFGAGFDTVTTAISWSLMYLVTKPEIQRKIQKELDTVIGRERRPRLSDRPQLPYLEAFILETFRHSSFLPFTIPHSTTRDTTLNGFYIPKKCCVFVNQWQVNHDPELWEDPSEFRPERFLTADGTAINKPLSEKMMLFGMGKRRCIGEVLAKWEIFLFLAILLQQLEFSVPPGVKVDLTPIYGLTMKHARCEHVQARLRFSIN

Cytochrome P450 2D6 = Cytochrome P450 2D6 (Homo sapiens, UniProt P10635);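 note: CYP2D6 member of a cytochrome P450 panel assay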
Sequence of Cytochrome P450 2D6 (P10635 whole entry): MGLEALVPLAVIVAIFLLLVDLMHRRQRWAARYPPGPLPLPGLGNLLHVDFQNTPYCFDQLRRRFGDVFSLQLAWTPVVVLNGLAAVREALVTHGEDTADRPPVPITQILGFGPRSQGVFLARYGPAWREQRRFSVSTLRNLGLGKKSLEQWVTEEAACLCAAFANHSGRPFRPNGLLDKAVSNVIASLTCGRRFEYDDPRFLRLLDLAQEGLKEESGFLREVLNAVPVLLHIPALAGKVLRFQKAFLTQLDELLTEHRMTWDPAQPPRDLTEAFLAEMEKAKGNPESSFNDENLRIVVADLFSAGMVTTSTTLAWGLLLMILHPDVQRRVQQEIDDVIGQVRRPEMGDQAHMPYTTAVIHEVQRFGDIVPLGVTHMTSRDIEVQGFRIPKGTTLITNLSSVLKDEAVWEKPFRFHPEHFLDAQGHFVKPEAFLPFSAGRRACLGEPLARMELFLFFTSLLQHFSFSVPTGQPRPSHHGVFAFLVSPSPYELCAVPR

Sequence of ATP-dependent molecular chaperone HSP82 (C4YTQ8 whole entry): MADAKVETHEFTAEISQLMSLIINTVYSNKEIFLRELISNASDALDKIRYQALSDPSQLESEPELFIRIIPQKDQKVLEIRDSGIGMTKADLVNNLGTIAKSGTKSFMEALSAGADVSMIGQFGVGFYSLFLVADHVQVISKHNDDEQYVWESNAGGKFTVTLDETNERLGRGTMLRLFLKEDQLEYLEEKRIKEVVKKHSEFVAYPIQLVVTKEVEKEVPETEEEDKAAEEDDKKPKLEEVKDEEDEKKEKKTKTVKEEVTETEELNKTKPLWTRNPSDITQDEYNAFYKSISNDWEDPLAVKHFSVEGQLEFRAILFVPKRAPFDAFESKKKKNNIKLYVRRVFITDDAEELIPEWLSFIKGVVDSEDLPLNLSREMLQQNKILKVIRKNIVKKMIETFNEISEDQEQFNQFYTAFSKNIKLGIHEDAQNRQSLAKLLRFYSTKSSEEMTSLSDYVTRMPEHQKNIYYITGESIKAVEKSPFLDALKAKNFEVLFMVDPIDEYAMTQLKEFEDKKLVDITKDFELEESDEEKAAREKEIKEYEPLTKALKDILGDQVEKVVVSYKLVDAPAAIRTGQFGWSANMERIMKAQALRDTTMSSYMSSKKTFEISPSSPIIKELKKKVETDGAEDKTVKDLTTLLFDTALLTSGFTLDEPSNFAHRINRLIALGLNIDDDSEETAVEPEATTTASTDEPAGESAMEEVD

Row | Compound | EC50 [1] | EC50 [2] | EC50 [3] | EC50 [5] | EC50 (Streptococcus) | EC50 [7] | IC50 [8] | EC50 [9] | IC50 [10] | further results
1 | CCC(=O)NC(c1ccc(C)cc1)c1cc([N+](=O)[O-])c2cccnc2c1O (stereo unspecified) | 21.8 µM (active) | 1.17 µM (active) | 0.212 µM (active) | > 180 µM (inactive) | 12.7 µM (active) | > 150 µM (inactive) |  |  |  | EC50 (Streptokinase A): 56.5 µM (active); EC50 [4]: 1.34 µM (active); EC50 [6]: 6.02 µM (active); AC50 (INS1): 5.53 µM (active)
2 | O=C(Nc1cc(S(=O)(=O)N2CCCCC2)ccc1N1CCCCC1)C1CC1 |  |  |  |  |  |  | < 0.368 µM (active) | > 53 µM (inactive) | > 20 µM (inactive) | 
3 | CC1CCc2c(sc3ncnc(N4CCOCC4)c23)C1 (stereo unspecified) | > 160 µM (inactive) |  | > 38 µM (not active) |  |  |  |  |  |  | AC50 [11]: 22.5 µM (active); AC50 [12]: 0.858 µM (active); AC50 [13]: 20.8 µM (active); AC50 [14]: 4.54 µM (active)
4 | O=C(CCc1ccccc1)NNC(=S)NC(=O)c1ccccc1 | > 150 µM (inactive) | 1.27 µM (active) | 1.01 µM (active) | 19.2 µM (active) | 5.07 µM (active) | 16.4 µM (active) |  |  |  | IC50 (Leucine aminopeptidase): 41.3 µM (active); AC50 (Cytochrome P450 1A2): 14.1 µM (inconclusive)
5 | COC(=O)C(NC(=O)c1ccc(F)cc1)(Nc1ncc(S(=O)(=O)c2ccc([N+](=O)[O-])cc2)s1)C(F)(F)F (stereo unspecified) |  |  |  |  |  |  | 16.3 µM (active) | > 53 µM (inactive) | 14.5 µM (active) | AC50 (Cytochrome P450 2D6): 31.6 µM (inconclusive)
